Source: patent publication US11946059B2, “In vivo generation of water-soluble cannabinoids in plant cell suspension cultures” (Trait Biosciences Inc., priority 2017, dated 2024)

Experiment: Cannabinoid stability in solution (time course incubation)
Type: physicochemical
Settings: room temperature, shielded from light
Description: Rather, levels increased slightly in all treatments. The absence of any residual UGTs were cross-check and confirmed as the samples were purified by SPE, washed and eluted in 30% and 65%-100% ethanol, respectively.
Materials and Methods Example 19: Cannabinoid Stability in Solution.
The present inventors generated a stock solution of the CBD/CBDA+glycosides mixture in water which was further diluted 10× in all treatment solutions. A 10 mL starting volume was used for all treatments, and all treatments were prepared in triplicate. […] Each sample was incubated at room temperature. Samples were stored in 15 mL polypropylene centrifuge tubes. All samples were shielded from light—tubes were wrapped in aluminum foil. Each sample was prepared in triplicate in the following buffers: water only; pH=3; pH=4; pH=7; pH=8; water only+10 mM ascorbic acid; pH=3+10 mM ascorbic acid; pH=4+10 mM ascorbic acid; pH=7+10 mM ascorbic acid; and pH=8+10 mM ascorbic acid.

[1] = Water + AA (10 mM ascorbic acid)
[2] = pH = 3 + AA (10 mM ascorbic acid)
[3] = pH = 4 + AA (10 mM ascorbic acid)
[4] = pH = 7 + AA (10 mM ascorbic acid)
[5] = pH = 8 + AA (10 mM ascorbic acid)

Compound: C=C(C)[C@@H]1CCC(C)=C[C@H]1c1c(O)cc(CCCCC)cc1O [CBD, cannabidiol, reference compound]
- Day 0 concentration in solution [1]: 561.85 ± 86.83 µg/mL
- Day 0 concentration in solution (Water): 399.81 ± 111.06 µg/mL
- Day 0 concentration in solution [2]: 565.75 ± 40.96 µg/mL
- Day 0 concentration in solution (pH = 3): 568.71 ± 115.90 µg/mL
- Day 0 concentration in solution [3]: 524.40 ± 34.95 µg/mL
- Day 0 concentration in solution (pH = 4): 505.97 ± 5.10 µg/mL
- Day 0 concentration in solution [4]: 500.03 ± 21.45 µg/mL
- Day 0 concentration in solution (pH = 7): 528.04 ± 91.17 µg/mL
- Day 0 concentration in solution [5]: 1136.36 ± 996.36 µg/mL
- Day 0 concentration in solution (pH = 8): 513.35 ± 39.23 µg/mL
- Day 1 concentration in solution [1]: 428.63 ± 198.77 µg/mL
- Day 1 concentration in solution (Water): 629.00 ± 383.79 µg/mL
- Day 1 concentration in solution [2]: 650.49 ± 12.10 µg/mL
- Day 1 concentration in solution (pH = 3): 713.93 ± 41.47 µg/mL
- Day 1 concentration in solution [3]: 406.17 ± 210.69 µg/mL
- Day 1 concentration in solution (pH = 4): 380.77 ± 233.10 µg/mL
- Day 1 concentration in solution [4]: 505.88 ± 276.58 µg/mL
- Day 1 concentration in solution (pH = 7): 880.54 ± 5.87 µg/mL
- Day 1 concentration in solution [5]: 291.15 ± 78.65 µg/mL
- Day 1 concentration in solution (pH = 8): 747.61 ± 101.87 µg/mL
- Day 4 concentration in solution [1]: 182.66 ± 25.03 µg/mL
- Day 4 concentration in solution (Water): 432.54 ± 251.39 µg/mL
- Day 4 concentration in solution [2]: 232.39 ± 113.88 µg/mL
- Day 4 concentration in solution (pH = 3): 191.94 ± 55.68 µg/mL
- Day 4 concentration in solution [3]: 305.20 ± 97.35 µg/mL
- Day 4 concentration in solution (pH = 4): 278.33 ± 85.33 µg/mL
- Day 4 concentration in solution [4]: 398.16 ± 391.86 µg/mL
- Day 4 concentration in solution (pH = 7): 539.55 ± 260.69 µg/mL
- Day 4 concentration in solution [5]: 173.43 ± 17.53 µg/mL
- Day 4 concentration in solution (pH = 8): 560.90 ± 69.27 µg/mL
- Day 5 concentration in solution [1]: 448.64 ± 33.51 µg/mL
- Day 5 concentration in solution (Water): 466.09 ± 130.53 µg/mL
- Day 5 concentration in solution [2]: 320.48 ± 92.87 µg/mL
- Day 5 concentration in solution (pH = 3): 330.79 ± 138.28 µg/mL
- Day 5 concentration in solution [3]: 366.65 ± 92.35 µg/mL
- Day 5 concentration in solution (pH = 4): 510.50 ± 76.06 µg/mL
- Day 5 concentration in solution [4]: 353.25 ± 135.11 µg/mL
- Day 5 concentration in solution (pH = 7): 593.92 ± 6.30 µg/mL
- Day 5 concentration in solution [5]: 287.24 ± 39.56 µg/mL
- Day 5 concentration in solution (pH = 8): 498.21 ± 92.88 µg/mL
- Day 6 concentration in solution [1]: 957.17 ± 315.70 µg/mL
- Day 6 concentration in solution (Water): 179.13 ± 17.88 µg/mL
- Day 6 concentration in solution [2]: 801.14 ± 230.88 µg/mL
- Day 6 concentration in solution (pH = 3): 607.98 ± 416.07 µg/mL
- Day 6 concentration in solution [3]: 777.26 ± 56.02 µg/mL
- Day 6 concentration in solution (pH = 4): 897.52 ± 65.92 µg/mL
- Day 6 concentration in solution [4]: 828.02 ± 269.38 µg/mL
- Day 6 concentration in solution (pH = 7): 1115.01 ± 169.64 µg/mL
- Day 6 concentration in solution [5]: 847.26 ± 88.56 µg/mL
- Day 6 concentration in solution (pH = 8): 911.61 ± 84.17 µg/mL
- Day 7 concentration in solution [1]: 592.44 ± 87.97 µg/mL
- Day 7 concentration in solution (Water): 680.13 ± 229.24 µg/mL
- Day 7 concentration in solution [2]: 464.35 ± 105.43 µg/mL
- Day 7 concentration in solution (pH = 3): 563.80 ± 65.50 µg/mL
- Day 7 concentration in solution [3]: 557.34 ± 60.39 µg/mL
- Day 7 concentration in solution (pH = 4): 641.86 ± 33.49 µg/mL
- Day 7 concentration in solution [4]: 549.93 ± 39.69 µg/mL
- Day 7 concentration in solution (pH = 7): 544.28 ± 57.97 µg/mL
- Day 7 concentration in solution [5]: 630.99 ± 2.44 µg/mL
- Day 7 concentration in solution (pH = 8): 580.54 ± 94.41 µg/mL

Compound: C=C(C)C1CCC(C)=CC1c1c(O)cc(CCCCC)cc1OC1OC(CO)C(O)C(O)C1O (centres unmarked) [1X CBD Gly]
- Day 1 concentration in solution [1]: 7.99 ± 4.17 µg/mL
- Day 1 concentration in solution (Water): 1.20 ± 21.68 µg/mL
- Day 1 concentration in solution [2]: 9.78 ± 5.27 µg/mL
- Day 1 concentration in solution (pH = 3): 8.83 ± 1.80 µg/mL
- Day 1 concentration in solution [3]: 5.82 ± 3.11 µg/mL
- Day 1 concentration in solution (pH = 4): below LOQ
- Day 1 concentration in solution [4]: 5.73 ± 4.70 µg/mL
- Day 1 concentration in solution (pH = 7): 15.45 ± 0.07 µg/mL
- Day 1 concentration in solution [5]: 1.04 ± 4.15 µg/mL
- Day 1 concentration in solution (pH = 8): 12.86 ± 4.15 µg/mL
- Day 4 concentration in solution [1]: 17.55 ± 5.99 µg/mL
- Day 4 concentration in solution (Water): 15.11 ± 10.77 µg/mL
- Day 4 concentration in solution [2]: 17.99 ± 4.60 µg/mL
- Day 4 concentration in solution (pH = 3): 18.94 ± 4.88 µg/mL
- Day 4 concentration in solution [3]: 17.02 ± 5.68 µg/mL
- Day 4 concentration in solution (pH = 4): 29.03 ± 8.17 µg/mL
- Day 4 concentration in solution [4]: 19.96 ± 9.83 µg/mL
- Day 4 concentration in solution (pH = 7): 19.64 ± 3.44 µg/mL
- Day 4 concentration in solution [5]: 15.86 ± 2.63 µg/mL
- Day 4 concentration in solution (pH = 8): 26.99 ± 15.29 µg/mL
- Day 5 concentration in solution [1]: 19.70 ± 0.80 µg/mL
- Day 5 concentration in solution (Water): 14.60 ± 1.31 µg/mL
- Day 5 concentration in solution [2]: 19.29 ± 3.26 µg/mL
- Day 5 concentration in solution (pH = 3): 18.00 ± 0.59 µg/mL
- Day 5 concentration in solution [3]: 19.34 ± 1.90 µg/mL
- Day 5 concentration in solution (pH = 4): 18.26 ± 0.52 µg/mL
- Day 5 concentration in solution [4]: 19.05 ± 3.91 µg/mL
- Day 5 concentration in solution (pH = 7): 17.50 ± 1.63 µg/mL
- Day 5 concentration in solution [5]: 20.14 ± 1.73 µg/mL
- Day 5 concentration in solution (pH = 8): 19.73 ± 0.55 µg/mL
- Day 6 concentration in solution [1]: 34.98 ± 9.28 µg/mL
- Day 6 concentration in solution (Water): 8.56 ± 7.04 µg/mL
- Day 6 concentration in solution [2]: 27.67 ± 9.51 µg/mL
- Day 6 concentration in solution (pH = 3): 21.59 ± 7.97 µg/mL
- Day 6 concentration in solution [3]: 31.67 ± 4.29 µg/mL
- Day 6 concentration in solution (pH = 4): 32.87 ± 8.08 µg/mL
- Day 6 concentration in solution [4]: 30.43 ± 4.82 µg/mL
- Day 6 concentration in solution (pH = 7): 46.80 ± 10.12 µg/mL
- Day 6 concentration in solution [5]: 32.97 ± 1.31 µg/mL
- Day 6 concentration in solution (pH = 8): 44.10 ± 3.45 µg/mL
- Day 7 concentration in solution [1]: 24.99 ± 7.29 µg/mL
- Day 7 concentration in solution (Water): 23.89 ± 5.27 µg/mL
- Day 7 concentration in solution [2]: 19.38 ± 0.46 µg/mL
- Day 7 concentration in solution (pH = 3): 27.06 ± 4.05 µg/mL
- Day 7 concentration in solution [3]: 23.30 ± 3.95 µg/mL
- Day 7 concentration in solution (pH = 4): 26.96 ± 0.46 µg/mL
- Day 7 concentration in solution [4]: 39.57 ± 4.63 µg/mL
- Day 7 concentration in solution (pH = 7): 22.14 ± 6.83 µg/mL
- Day 7 concentration in solution [5]: 37.93 ± 2.89 µg/mL
- Day 7 concentration in solution (pH = 8): 32.42 ± 8.76 µg/mL
